In brackets after ≈: the same amount, converted by molar mass.
Details: buffer; pH 7.4; 200.0 µM

SMILES	solubility kinetic
O=C(O)C1CCN(C(=O)CSc2nnc3ccccn23)CC1	> 48.1 µg/mL
Cc1cc(OCCCCN2C(=O)NC(C)(C)C2=O)ccc1[N+](=O)[O-]	> 50.3 µg/mL
COc1ccc(OC)c(S(=O)(=O)NCCc2csc(-c3cccnc3)n2)c1	59 µg/mL (≈ 145 µM)
CCC(CC)C(=O)Nc1nnc(SCC(=O)NC(C)(C)C)s1	> 51.7 µg/mL
O=C(Cc1c[nH]c2ccccc12)N1CCN(c2ccccc2)CC1	3.9 µg/mL (≈ 12.2 µM)
CCCCCCCCCCCC(=O)N1CC(=O)NC(=O)C1	2.5 µg/mL (≈ 8.43 µM)
COc1ccc(Cl)cc1NC(=O)COC(=O)c1cc(C)oc1C	4.2 µg/mL (≈ 12.4 µM)
COc1ccc(/C=C/C(=O)NC2CCCCC2C)cc1 (stereo unspecified)	4 µg/mL (≈ 14.6 µM)
O=C(OCc1ccc([N+](=O)[O-])cc1)C1CC(=O)N(Cc2ccccc2)C1 (stereo unspecified)	> 53.2 µg/mL
Cc1ccc(C(C)C)c(OCCOCCN2CCNCC2)c1.O=C(O)C(=O)O	52.1 µg/mL
O=C(NCC1CCCO1)c1cc2c(s1)CCC2 (stereo unspecified)	> 37.7 µg/mL
CC(=O)Nc1ccc(NC(=O)c2c(C)noc2C)cc1	> 41 µg/mL
O=C1NC2(CCCCCCC2)C(=O)N1Cc1ccc(F)cc1	10.5 µg/mL (≈ 34.5 µM)
Cc1cc(C)c(N=Cc2c(O)c3ccccc3oc2=O)c(C)c1	< 0.7 µg/mL
CN1C2CCC1CC(NC(=O)CSCc1ccc(Cl)cc1Cl)C2 (stereo unspecified)	> 56 µg/mL
Cl.NC(=S)NC(c1ccccc1)c1ccncc1 (stereo unspecified)	39.5 µg/mL
CCCCNC(=O)c1cc2c(C)cc(C)cc2[nH]1	2.2 µg/mL (≈ 9 µM)
CCOCCN(C(=O)c1ccccc1Cl)c1cccc(C)c1C	> 49.8 µg/mL
COc1ccc(NC(=O)Nc2c[nH]c(=O)[nH]c2=O)cc1OC	44.8 µg/mL (≈ 146 µM)
CC1CCCCN1C(=S)NCc1ccco1 (stereo unspecified)	> 35.8 µg/mL
O=C1c2ccccc2NC(c2ccccc2)N1Cc1ccccc1 (stereo unspecified)	7.9 µg/mL (≈ 25.1 µM)

SMILES	solubility kinetic
O=C(COC(=O)c1ccc(F)cc1)Nc1ccc2c(c1)OCO2	4.5 µg/mL (≈ 14.2 µM)
O=C1CN(C(=O)COC(=O)[C@@H]2CCCN2S(=O)(=O)c2ccc(Cl)cc2)c2ccccc2N1	59.1 µg/mL (≈ 124 µM)
CN(Cc1nc(-c2ccccc2)no1)C1CCOCC1	36.7 µg/mL (≈ 134 µM)
O=c1[nH]c2ccc([N+](=O)[O-])cc2nc1/C=C(\O)c1ccccc1	2.3 µg/mL (≈ 7.44 µM)
COc1ccccc1CN1CCCC(CNC(=O)c2cccc3ccccc23)C1 (stereo unspecified)	49.5 µg/mL (≈ 127 µM)
Cc1cc(NS(=O)(=O)c2ccc(C(C)C)cc2)no1	40.2 µg/mL (≈ 143 µM)
CCOC(=O)C1CCCN(C/C=C/c2ccccc2)C1 (stereo unspecified)	20.5 µg/mL (≈ 75 µM)
O=C(CN1C(=O)NC2(CCOc3ccccc32)C1=O)c1cccs1 (stereo unspecified)	> 51.4 µg/mL
O=C(CCl)Nc1ccccc1C(=O)c1ccccc1	> 41.1 µg/mL
O=C(O)CSc1nc2ccc(C(=O)c3ccccc3)cc2[nH]1	44.4 µg/mL (≈ 142 µM)
O=C(Nc1ccccc1)c1cn(CCBr)cn1	> 44.1 µg/mL
COc1ccccc1-c1nnc(SCC(=O)NC2CCCCC2)n1N	> 54.2 µg/mL
CCc1nc(N[C@H](C(=O)O)C(C)C)c2oc3ccccc3c2n1	> 47 µg/mL
Cc1cc(Cl)cc(C)c1OCCCCCn1ccnc1	30.7 µg/mL (≈ 105 µM)
COc1ccc(S(=O)(=O)NC2CCCC2)cc1C(N)=O	> 44.8 µg/mL
CCOc1ccc(/C=C/C(=O)N2CCOCC2)cc1OC	> 43.7 µg/mL
CC(C)(C)c1ccc(NC(=O)c2cc[n+]([O-])cc2)cc1	36.1 µg/mL (≈ 134 µM)
Cc1ccsc1/C=C1/SC(=O)N(CC(=O)N2CCCC2)C1=O	5.9 µg/mL (≈ 17.5 µM)
COc1ccc(NS(=O)(=O)c2cccs2)cn1	> 40.5 µg/mL
COc1cc(C(=S)N2CCCC2)ccc1OCc1ccccc1	1.5 µg/mL (≈ 4.58 µM)
Cc1ccc(CSCc2ccc(C(=O)NC3CC3)o2)cc1	> 45.2 µg/mL

SMILES	solubility kinetic
CN(C)CCCC1Sc2ccccc2Sc2ccccc21.O=C(O)C(=O)O (stereo unspecified)	> 60.8 µg/mL
C=CCn1c(O)c(C(C)=Nc2ccc3c(c2)CCC3)c(=O)[nH]c1=O	0.8 µg/mL (≈ 2.46 µM)
CCCCC(CC)CNC(=O)C(=O)C1C(=O)Nc2ccccc21 (stereo unspecified)	26.1 µg/mL (≈ 82.5 µM)
CC1(C)CC(=O)C2=C(C1)OC(N)=C(C#N)C2c1ccc[nH]1 (stereo unspecified)	> 42.5 µg/mL
CCOC(=O)c1csc(NC(=O)CN2CCCCC2)n1	> 44.6 µg/mL
CN(C)CCCNC(=O)c1cc(C(=O)Cc2ccccc2)c[nH]1	> 47 µg/mL
O=Cc1ccc(-c2cccc([N+](=O)[O-])c2)o1	6.3 µg/mL (≈ 29 µM)
COCCSc1nc(N)c2c3c(sc2n1)CN(C)CC3	> 46.6 µg/mL
CCOC(=O)N1CCN(Cc2ccc3c(c2)OCO3)CC1	41.9 µg/mL (≈ 143 µM)
CC(=O)OCCCN(C)CC/C=C1/c2ccccc2CSc2ccccc21.Cl	53.8 µg/mL
Cc1ccccc1CN1CCN(CC(=O)NCc2ccccc2)CC1	> 50.6 µg/mL
CC1CC(C)CN(C(=O)c2ccc(C#N)cc2)C1 (stereo unspecified)	> 36.3 µg/mL
Cc1ccc(CSc2[nH]c(=O)ncc2C)cc1	11 µg/mL (≈ 44.7 µM)
Cc1ccccc1-c1noc(-c2ccccc2C(=O)NCC2CCCO2)n1 (stereo unspecified)	49.6 µg/mL (≈ 136 µM)
Cc1ccc(SCC(=O)c2c(C)nc3cc(C)ccn23)cc1	0.7 µg/mL (≈ 2.25 µM)
COC(=O)c1cc(OC)c(OC)cc1N1C(=O)CC(C)(C)CC1=O	> 50.3 µg/mL
c1ccc2c(c1)cnc1ccccc12	7.7 µg/mL (≈ 43 µM)
CCn1c(C)cc(O)cc1=O	> 23 µg/mL
COc1ccc(S(=O)(=O)NC2CCCCCC2)cc1C(N)=O	11.9 µg/mL (≈ 36.5 µM)
